Source: patent US20230129359A1, “MUSCARINIC RECEPTOR 4 ANTAGONISTS AND METHODS OF USE” (Neurocrine Biosciences, Inc., priority 2020, published 2023)

Target: T1, human M4 receptor (Homo sapiens, UniProt P08173)
T1 construct: expressed in transfected cells; host or cells: CHO cells
T1 sequence (P08173 1-479): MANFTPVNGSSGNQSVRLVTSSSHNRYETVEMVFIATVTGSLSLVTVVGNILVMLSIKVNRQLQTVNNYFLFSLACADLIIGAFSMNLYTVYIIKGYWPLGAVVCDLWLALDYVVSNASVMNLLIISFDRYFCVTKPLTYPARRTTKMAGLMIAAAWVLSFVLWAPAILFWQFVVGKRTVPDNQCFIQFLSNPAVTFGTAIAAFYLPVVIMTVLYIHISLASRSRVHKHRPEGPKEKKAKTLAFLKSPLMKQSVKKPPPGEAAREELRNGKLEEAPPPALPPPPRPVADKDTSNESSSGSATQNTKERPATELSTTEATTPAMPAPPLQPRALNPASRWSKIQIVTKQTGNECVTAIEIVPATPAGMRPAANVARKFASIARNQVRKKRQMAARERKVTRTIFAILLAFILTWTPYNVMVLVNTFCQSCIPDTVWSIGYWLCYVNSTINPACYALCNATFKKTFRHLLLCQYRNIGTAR
Test: Radioligand ([3H]N-methylscopolamine) binding assay, membranes from CHO cells expressing human M4 receptor
Conditions: Ki against human M4 receptor; membranes from CHO cells; tritiated N-methylscopolamine 1.5 nM; read-out: K
In short: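 Competition binding used CHO-cell membranes expressing human M4 with 1.5 nM [3H]N-methylscopolamine and twelve compound concentrations ([…]). Incubation was 90 minutes at 37 °C in 50 mM HEPES, 100 mM NaCl, 5 mM MgCl2, 1 mM EDTA, pH 7.4. Bound ligand was collected by filtration onto PEI-treated glass fibre for Ki.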

| Structure (SMILES) | Ki [nM] |
| --- | --- |
| COc1ccc2nc(N3C[C@@H](C)N(C(=O)NC4CC5(C4)CN(Cc4ccccc4)C5)[C@@H](C)C3)cnc2c1 [Compound 215, (2R,6S)-N-{2-benzyl-2-azaspiro[3.3]heptan-6-yl}-4-(6-methoxyquinoxalin-2-yl)-2,6-dimethylpiperazine-1-carboxamide] | 10 to 100 |
| C[C@@H]1CN(c2nc3ccc(C(F)(F)F)cc3s2)C[C@H](C)N1C(=O)NC1CC2(C1)CN(Cc1ccccc1)C2 [Compound 216, (2R,6S)-N-{2-benzyl-2-azaspiro[3.3]heptan-6-yl}-2,6-dimethyl-4-[6-(trifluoromethyl)-1,3-benzothiazol-2-yl)piperazine-1-carboxamide] | < 10 |
| C[C@@H]1CN(c2nc3ccc(C(F)(F)F)cc3s2)C[C@@H](C)N1C(=O)NC1CC2(C1)CN(Cc1ccccc1)C2 [Compound 217, (2R,6R)-N-{2-benzyl-2-azaspiro[3.3]heptan-6-yl}-2,6-dimethyl-4-[6-(trifluoromethyl)-1,3-benzothiazol-2-yl]piperazine-1-carboxamide] | < 10 |
| COc1ccc2nc(N3C[C@@H](C)N(C(=O)NC4CC5(C4)CN(Cc4ccccc4)C5)[C@H](C)C3)cnc2c1 [Compound 219, (2R,6R)-N-{2-benzyl-2-azaspiro[3.3]heptan-6-yl}-4-(6-methoxyquinoxalin-2-yl)-2,6-dimethylpiperazine-1-carboxamide] | 10 to 100 |
| COc1ccc2nc(N3C[C@@H](C)N(C(=O)NC4CC5(C4)CN(Cc4ccccc4)C5)C[C@@H]3C)cnc2c1 [Compound 222, (2R,5S)-N-{2-benzyl-2-azaspiro[3.3]heptan-6-yl}-4-(6-methoxyquinoxalin-2-yl)-2,5-dimethylpiperazine-1-carboxamide] | < 10 |
| C[C@@H]1CN(c2cnc3ccccc3n2)CCN1C(=O)NC1CC2(C1)CN(Cc1ccccc1)C2 [Compound 224, (2R)-N-{2-benzyl-2-azaspiro[3.3]heptan-6-yl}-2-methyl-4-(quinoxalin-2-yl)piperazine-1-carboxamide] | 10 to 100 |
| C[C@@H]1CN(c2nc3ccc(C(F)(F)F)cc3s2)CCN1C(=O)NC1CC2(C1)CN(Cc1ccccc1)C2 [Compound 225, (2R)-N-{2-bnezyl-2-azaspiro[3.3]heptan-6-yl}-2-methyl-4-[6-(trifluoromethyl)-1,3-benzothiazol-2-yl]piperazine-1-carboxamide] | < 10 |
| C[C@@H]1CN(c2ncc(C(F)(F)F)cc2F)C[C@H](C)N1C(=O)NC1CC2(C1)CN(Cc1ccccc1)C2 [Compound 227, (2R,6S)-N-{2-benzyl-2-azaspiro[3.3]heptan-6-yl}-4-[3-fluoro-5-(trifluoromethyl)pyridin-2-yl]-2,6-dimethylpiperazine-1-carboxamide] | < 10 |
| C[C@@H]1CN(c2nc3ccc(F)cc3s2)C[C@H](C)N1C(=O)NC1CC2(C1)CN(Cc1ccccc1)C2 [Compound 231, (2R,6S)-N-{2-benzyl-2-azaspiro[3.3]heptan-6-yl}-4-(6-fluoro-1,3-benzothiazol-2-yl)-2,6-dimethylpiperazine-1-carboxamide] | < 10 |
| C[C@@H]1CN(c2nc3ccc(F)cc3s2)[C@@H](C)CN1C(=O)NC1CC2(C1)CN(Cc1ccccc1)C2 [Compound 233, (2R,5S)-N-{2-benzyl-2-azaspiro[3.3]heptan-6-yl}-4-(6-fluoro-1,3-benzothiazol-2-yl)-2,5-dimethylpiperazine-1-carboxamide] | < 10 |
| C[C@@H]1CN(c2nc3ccc(F)cc3s2)CCN1C(=O)NC1CC2(C1)CN(Cc1ccccc1)C2 [Compound 234, (2R)-N-{2-benzyl-2-azaspiro[3.3]heptan-6-yl}-4-(6-fluoro-1,3-benzothiazol-2-yl)-2-methylpiperazine-1-carboxamide] | < 10 |
| C[C@@H]1CN(c2cnc3cc(C(F)(F)F)ccc3n2)C[C@H](C)N1C(=O)NC1CC2(C1)CN(Cc1ccccc1)C2 [Compound 235, (2R,6S)-N-{2-benzyl-2-azaspiro[3.3]heptan-6-yl}-2,6-dimethyl-4-[6-(trifluoromethyl)quinoxalin-2-yl]piperazine-1-carboxamide] | 10 to 100 |
| C[C@@H]1CN(c2cnc3cc(C(F)(F)F)ccc3n2)[C@@H](C)CN1C(=O)NC1CC2(C1)CN(Cc1ccccc1)C2 [Compound 237, (2R,5S)-N-{2-benzyl-2-azaspiro[3.3]heptan-6-yl}-2,5-dimethyl-4-[6-(trifluoromethyl)quinoxalin-2-yl]piperazine-1-carboxamide] | < 10 |
| COc1ccc2nc(N3C[C@@H](C)N(C(=O)NC4CC5(C4)CN(Cc4ccccc4)C5)[C@H](C)C3)sc2c1 [Compound 242, (2R,6R)-N-{2-benzyl-2-azaspiro[3.3]heptan-6-yl}-4-(6-methoxy-1,3-benzothiazol-2-yl)-2,6-dimethylpiperazine-1-carboxamide] | < 10 |
| C[C@@H]1CN(c2nc3ccccc3s2)[C@@H](C)CN1C(=O)NC1CC2(C1)CN(Cc1ccccc1)C2 [Compound 244, (2R,5S)-4-(1,3-benzothiazol-2-yl)-N-{2-benzyl-2-azaspiro[3.3]heptan-6-yl}-2,5-dimethylpiperazine-1-carboxamide] | < 10 |
| C[C@@H]1CN(c2nc3ccccc3s2)CCN1C(=O)NC1CC2(C1)CN(Cc1ccccc1)C2 [Compound 245, (2R)-4-(1,3-benzothiazol-2-yl)-N-{2-benzyl-2-azaspiro[3.3]heptan-6-yl}-2-methylpiperazine-1-carboxamide] | 10 to 100 |
| C[C@@H]1CN(c2ncc(OC(F)F)cn2)C[C@H](C)N1C(=O)NC1CC2(C1)CN(Cc1ccccc1)C2 [Compound 247, (2R,6S)-N-{2-benzyl-2-azaspiro[3.3]heptan-6-yl}-4-[5-(difluoromethoxy)pyrimidin-2-yl]-2,6-dimethylpiperazine-1-carboxamide] | 10 to 100 |
| C[C@@H]1CN(c2ncc(C(F)(F)F)c(N)n2)C[C@H](C)N1C(=O)NC1CC2(C1)CN(Cc1ccccc1)C2 [Compound 248, (2R,6S)-4-[4-amino-5-(trifluoromethyl)pyrimidin-2-yl]-N-{2-benzyl-2-azaspiro[3.3]heptan-6-yl}-2,6-dimethylpiperazine-1-carboxamide] | < 10 |
| C[C@@H]1CN(c2ncc(F)cn2)C[C@H](C)N1C(=O)NC1CC2(C1)CN(Cc1ccccc1)C2 [Compound 250, (2R,6S)-N-{2-benzyl-2-azaspiro[3.3]heptan-6-yl}-4-(5-fluoropyrimidin-2-yl)-2,6-dimethylpiperazine-1-carboxamide] | 100 to 1000 |
| C[C@@H]1CN(c2ncc(C#N)cn2)C[C@H](C)N1C(=O)NC1CC2(C1)CN(Cc1ccc(Cl)cc1)C2 [Compound 251, (2R,6S)-N-{2-[(4-chlorophenyl)methyl]-2-azaspiro[3.3]heptan-6-yl}-4-(5-cyanopyrimidin-2-yl)-2,6-dimethylpiperazine-1-carboxamide] | 10 to 100 |
| C[C@@H]1CN(c2ncc(C(F)(F)F)cn2)C[C@@H](C)N1C(=O)NC1CC2(C1)CN(Cc1ccc(Cl)cc1)C2 [Compound 255, (2R,6R)-N-{2-[(4-chlorophenyl)methyl]-2-azaspiro[3.3]heptan-6-yl}-2,6-dimethyl-4-[5-(trifluoromethyl)pyrimidin-2-yl]piperazine-1-carboxamide] | 10 to 100 |
| C[C@@H]1CN(c2ncc(C(F)(F)F)cn2)[C@@H](C)CN1C(=O)NC1CC2(C1)CN(Cc1ccc(Cl)cc1)C2 [Compound 256, (2R,5S)-N-{2-[(4-chlorophenyl)methyl]-2-azaspiro[3.3]heptan-6-yl}-2,5-dimethyl-4-[5-(trifluoromethyl)pyrimidin-2-yl]piperazine-1-carboxamide] | < 10 |
| C[C@@H]1CN(c2ncc(C(F)(F)F)cn2)CCN1C(=O)NC1CC2(C1)CN(Cc1ccc(Cl)cc1)C2 [Compound 257, (2R)-N-{2-[(4-chlorophenyl)methyl]-2-azaspiro[3.3]heptan-6-yl}-2-methyl-4-[5-(trifluoromethyl)pyrimidin-2-yl]piperazine-1-carboxamide] | 100 to 1000 |
| C[C@@H]1CN(c2cnc(C(F)(F)F)cn2)C[C@@H](C)N1C(=O)NC1CC2(C1)CN(Cc1ccc(Cl)cc1)C2 [Compound 259, (2R,6R)-N-{2-[(4-chlorophenyl)methyl]-2-azaspiro[3.3]heptan-6-yl}-2,6-dimethyl-4-[5-(trifluoromethyl)pyrazin-2-yl]piperazine-1-carboxamide] | 100 to 1000 |
| C[C@@H]1CN(c2cnc(C(F)(F)F)cn2)[C@@H](C)CN1C(=O)NC1CC2(C1)CN(Cc1ccc(Cl)cc1)C2 [Compound 260, (2R,5S)-N-{2-[(4-chlorophenyl)methyl]-2-azaspiro[3.3]heptan-6-yl}-2,5-dimethyl-4-[5-(trifluoromethyl)pyrazin-2-yl]piperazine-1-carboxamide] | 10 to 100 |
| C[C@@H]1CN(c2cnc(C(F)(F)F)cn2)CCN1C(=O)NC1CC2(C1)CN(Cc1ccc(Cl)cc1)C2 [Compound 261, (2R)-N-{2-[(4-chlorophenyl)methyl]-2-azaspiro[3.3]heptan-6-yl}-2-methyl-4-[5-(trifluoromethyl)pyrazin-2-yl]piperazine-1-carboxamide] | 10 to 100 |
| C[C@@H]1CN(c2ncc(C(F)(F)F)cn2)[C@@H](C)CN1C(=O)NC1CC2(C1)CN(Cc1ccc(F)cc1)C2 [Compound 265, (2R,5S)-N-{2-[(4-fluorophenyl)methyl]-2-azaspiro[3.3]heptan-6-yl}-2,5-dimethyl-4-[5-(trifluoromethyl)pyrimidin-2-yl]piperazine-1-carboxamide] | 10 to 100 |
